What was measured:
[1] = tested on: S. aureus LAC* lux USA300 (MRSA); assay: MIC by broth microdilution; assay type: cell-based; conditions: Staphylococcus aureus
Description: (§1) The minimum inhibitory concentration (MIC) of the β‐lactam–peptide conjugates was determined by broth microdilution as previously described.^[ [17] ^] Briefly, in cation‐adjusted MHB II medium, a twofold serial dilution of the compounds was prepared in 96‐well round‐bottom polystyrene or polypropylene microtiter plates with each well containing 50 µL. The plates were inoculated with 50 µL bacterial suspension and the final inoculum, in a total volume of 100 µL, contained 5 × 10^5 CFU mL^−1. The microplates were incubated for 20 h at 37 ± 1 °C. The lowest concentration preventing visible bacterial growth was considered the MIC value. For susceptibility testing of combinations of β‐lactamase‐inhibitors with either a β‐lactam antibiotic or a β‐lactam–peptide conjugate, fixed concentrations of the inhibitors according to the EUCAST (European Committee on Antimicrobial Susceptibility Testing) guidelines (clavulanic acid = 2 mg L^−1, avibactam = 4 mg L^−1) were used.

[2] = tested on: K. pneumoniae ATCC 700 603 (SHV‐18); assay: microbe, parasite or virus in culture; assay type: cell-based; conditions: Klebsiella pneumoniae, 20 h; K. pneumoniae ATCC 700603 (SHV‐18); combinations: avibactam fixed 4 mg L^−1, clavulanic acid 2 mg L^−1; median (n = 3)
Summary of the method: (§2)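 Susceptibility is determined by broth microdilution, with inocula of 5 × 10^5 CFU mL^−1 in cation-adjusted MHB II and 20 h incubation at 37 ± 1 °C. For inhibitor combinations, clavulanic acid (2 mg L^−1) or avibactam (4 mg L^−1) is held constant following EUCAST guidance.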

[3] = tested on: K. pneumoniae 0 6841/Nr.45 (Oxa48); assay: microbe, parasite or virus in culture; assay type: cell-based; conditions: Klebsiella pneumoniae, 20 h; K. pneumoniae 06841/Nr.45 (Oxa48); combinations: avibactam fixed 4 mg L^−1, clavulanic acid 2 mg L^−1; median (n = 3)
Summary of the method: as §2

[4] = tested on: E. coli Tü21‐031 (Oxa244, ESBL); assay: microbe, parasite or virus in culture; assay type: cell-based; conditions: Escherichia coli, combinations: avibactam fixed 4 mg L^−1, median (n = 3)
Summary of the method: as §2

E. coli ATCC 25 922 (–) = assay: microbe, parasite or virus in culture; assay type: cell-based; conditions: Escherichia coli, 20 h; E. coli ATCC 25922 (no β‐lactamase); combinations: avibactam fixed 4 mg L^−1, clavulanic acid 2 mg L^−1; median (n = 3)
Summary of the method: as §2

[5] = tested on: A. baumannii SC300007 (Oxa23); assay: microbe, parasite or virus in culture; assay type: cell-based; conditions: Acinetobacter baumannii, 20 h, combinations: avibactam fixed 4 mg L^−1, clavulanic acid 2 mg L^−1, median (n = 3)
Summary of the method: as §2

[6] = tested on: C. freundii Tü21‐052 (clinical isolate); assay: microbe, parasite or virus in culture; assay type: cell-based; conditions: Citrobacter freundii; C. freundii Tü21‐052; median (n = 3); read-out: MIC
Summary of the method: as §2

[7] = Scintigraphy and biodistribution in rats; parameters: species or system Wistar rats; conditions: rat, in vivo, iv
Description: To enable radiolabeling of the β‐lactam–peptide conjugates, their peptide sequence was elongated by an N‐terminal D‐tyrosine. […] The solution was mixed with 5 MBq of iodine‐125 and radiolabeling was performed using the chloramine T method as previously described.^[ [35] ^] After 30 s, the reaction was quenched by the addition of a saturated methionine solution and the radiolabeled compound purified by reversed‐phase preparative radio‐HPLC (1100 series, Agilent Technologies, Santa Clara, CA, USA). Analysis was performed by analytical radio‐HPLC (1100 series, Agilent Technologies, Santa Clara, CA, USA) using a linear gradient from water (+ 0.1% TFA) to acetonitrile (+ 0.1% TFA) over 5 min at a flow rate of 2 mL min^−1.
All animal studies were approved by the Animal Care and Use committees from Regierungspräsidium Karlsruhe (Karlsruhe, Germany; reference number 35–9185.81/G‐199/21; date of approval: November 23, 2021). […]
The biodistribution of CTZ‐yR6 in Wistar rats was determined at 10 min and 3 h post injection. […] Using a Cobra γ‐counter (Packard Bioscience, Meriden, CT, USA), the amount of radioactivity in each sample was measured which was then used in combination with the organ weight and injected dose for the calculation of the […] per gram of tissue (%ID g^−1).

A. bohemicus DSM 100419 = assay: MIC by broth microdilution; assay type: cell-based; conditions: median (n = 3)
Description: as §1

SMILES	MIC [1] [µg/mL]	MIC [2] [µg/mL]	MIC [3] [µg/mL]	MIC [4] [µg/mL]	MIC (E. coli ATCC 25 922 (–)) [µg/mL]	MIC [5] [µg/mL]	MIC [6] [µg/mL]	biodistribution (organ accumulation) [7]	antimicrobial activity (rank among CTZ–peptide conjugates) (A. bohemicus DSM 100419)
CC(C)(O/N=C(\C(=O)N[C@@H]1C(=O)N2C(C(=O)[O-])=C(C[n+]3ccccc3)CS[C@H]12)c1csc(N)n1)C(=O)O [CTZ, ceftazidime, reference compound]	16	64	> 64	32	0.25	> 64	0.25		
CC(C)(O/N=C(\C(=O)N[C@@H]1C(=O)N2C(C(=O)[O-])=C(C[n+]3ccccc3)CS[C@H]12)c1csc(N)n1)C(=O)NCCCCCCN1C(=O)CC(SC[C@H](NC(=O)[C@H](CCCNC(=N)N)NC(=O)[C@H](CCCNC(=N)N)NC(=O)[C@H](CCCNC(=N)N)NC(=O)[C@H](CCCNC(=N)N)NC(=O)[C@H](CCCNC(=N)N)NC(=O)[C@@H](N)CCCNC(=N)N)C(N)=O)C1=O (stereo partly drawn) [CTZ-R6]								accumulated in the liver and in the kidneys	most potent conjugates

Reference: publication PMC11672299, “Conjugation of Polycationic Peptides Extends the Efficacy Spectrum of β‐Lactam Antibiotics” (Advanced Science, 2024)
